Our source for the MIC values is ChEMBL document CHEMBL2380278, “Synthesis and antibacterial evaluation of a novel series of 10-hydroxyl ketolide derivatives” (2013).

The term MIC denotes the lowest concentration found to suppress growth.

For assay [1], the system named is Pseudomonas aeruginosa. Kind of assay: Antibacterial activity against drug-resistant Pseudomonas aeruginosa by broth microdilution method. It is filed as functional. (In general: Dilution methods test growth across graded concentrations, often in twofold steps.)
For another assay, the system named is Salmonella typhi. In words: Antibacterial activity against drug-resistant Salmonella typhi by broth microdilution method. It is filed as functional, Salmonella enterica subsp. enterica serovar Typhi. The settings on record: Salmonella enterica.
Another assay deals with Klebsiella pneumoniae. In words: Antibacterial activity against drug-resistant Klebsiella pneumoniae by broth microdilution method. Format: functional.
For assay [2], the system named is Escherichia coli. In words: Antibacterial activity against drug-resistant Escherichia coli by broth microdilution method. Format: functional.
The subject of assay [3] is Staphylococcus epidermidis. In words: Antibacterial activity against drug-resistant Staphylococcus epidermidis by broth microdilution method. Format: functional.
The subject of assay [4] is Staphylococcus aureus. In words: Antibacterial activity against drug-resistant Staphylococcus aureus by broth microdilution method. It is filed as functional.
Assay [5] has as its system Pseudomonas aeruginosa. Kind of assay: Antibacterial activity against Pseudomonas aeruginosa ATCC 27853 by broth microdilution method. Format: functional.
For assay [6], the system named is Escherichia coli. Kind of assay: Antibacterial activity against Escherichia coli ATCC 35218 by broth microdilution method. It is filed as functional.
For assay [7], the system named is Escherichia coli. Kind of assay: Antibacterial activity against Escherichia coli ATCC 25922 by broth microdilution method. It is filed as functional.
In assay [8] the test system is Staphylococcus aureus. In words: Antibacterial activity against Staphylococcus aureus ATCC 25923 by broth microdilution method. Format: functional.

Each structure is given as a SMILES string. Converted amounts (≈) assume the structure as drawn.

For the compound `CC[C@H]1OC(=O)[C@H](C)C(=O)[C@H](C)[C@@H](O[C@@H]2O[C@H](C)C[C@H](N(C)C)[C@H]2O)[C@](C)(OC)C[C@@H](C)C(=O)[C@@](C)(O)[C@H]2OC(=O)O[C@]12C`, the MIC in the assay on Pseudomonas aeruginosa [1] was more than 128 µg/mL; against Salmonella typhi, more than 128 µg/mL; against Klebsiella pneumoniae it was more than 128 µg/mL; in the assay on Escherichia coli [2], more than 128 µg/mL; in assay [3], 64 µg/mL (≈ 102 µM); in the assay with Staphylococcus aureus [4], more than 128 µg/mL. The MIC was more than 128 µg/mL in the assay on Pseudomonas aeruginosa [5], more than 128 µg/mL in the assay on Escherichia coli [6], more than 128 µg/mL in the assay on Escherichia coli [7] and 128 µg/mL (≈ 203 µM) in the assay with Staphylococcus aureus [8].
With `CC[C@H]1OC(=O)[C@H](C)C(=O)[C@H](C)[C@@H](O[C@@H]2O[C@H](C)C[C@H](N(C)C)[C@H]2O)[C@](C)(OC)C[C@@H](C)C(=O)[C@]2(C)O[C@H]2[C@]1(C)O`, the MIC was more than 128 µg/mL against Pseudomonas aeruginosa [1]; more than 128 µg/mL against Salmonella typhi; more than 128 µg/mL in the assay with Klebsiella pneumoniae; more than 128 µg/mL against Escherichia coli [2]; 128 µg/mL (≈ 219 µM) in assay [3]; more than 128 µg/mL with Staphylococcus aureus [4]. In addition, the MIC was more than 128 µg/mL with Pseudomonas aeruginosa [5], more than 128 µg/mL in the assay on Escherichia coli [6], more than 128 µg/mL against Escherichia coli [7] and 128 µg/mL (≈ 219 µM) in the assay on Staphylococcus aureus [8].
For the compound `CC[C@H]1OC(=O)[C@H](C)C(=O)[C@H](C)[C@@H](O[C@@H]2O[C@H](C)C[C@H](N(C)C)[C@H]2O)[C@](C)(OC)C[C@@H](C)C(=O)[C@@](C)(O)[C@H]2OS(=O)O[C@]12C` (stereo not given in full), the MIC in the assay on Pseudomonas aeruginosa [1] is more than 128 µg/mL; in the assay on Salmonella typhi, more than 128 µg/mL; against Klebsiella pneumoniae, more than 128 µg/mL; with Escherichia coli [2], more than 128 µg/mL; in assay [3], 8 µg/mL (≈ 12.3 µM); in the assay on Staphylococcus aureus [4] it was more than 128 µg/mL. The MIC in the assay on Pseudomonas aeruginosa [5] is more than 128 µg/mL; with Escherichia coli [6] it was more than 128 µg/mL; against Escherichia coli [7], more than 128 µg/mL; in the assay on Staphylococcus aureus [8], 64 µg/mL (≈ 98.5 µM).
Take `CC[C@H]1OC(=O)[C@H](C)C(=O)[C@H](C)[C@@H](O[C@@H]2O[C@H](C)C[C@H](N(C)C)[C@H]2O)[C@](C)(OC)C[C@@H](C)C(=O)[C@@](C)(O)[C@H](O)[C@]1(C)O`: the MIC (with Pseudomonas aeruginosa [1]; in the assay on Salmonella typhi; with Klebsiella pneumoniae; in the assay on Escherichia coli [2]; in [3]; in the assay on Staphylococcus aureus [4]) was more than 128 µg/mL throughout. Moreover, the MIC was more than 128 µg/mL with Pseudomonas aeruginosa [5], more than 128 µg/mL with Escherichia coli [6], more than 128 µg/mL against Escherichia coli [7] and 64 µg/mL (≈ 106 µM) with Staphylococcus aureus [8].
For the compound `CC[C@H]1OC(=O)[C@H](C)C(=O)[C@H](C)[C@@H](O[C@@H]2O[C@H](C)C[C@H](N(C)C)[C@H]2O)[C@](C)(OC)C[C@@H](C)C(=O)[C@@H](C)[C@H]2OC(=O)O[C@@]21C`, the MIC in the assay with Pseudomonas aeruginosa [1] is more than 128 µg/mL; with Salmonella typhi it was 128 µg/mL (≈ 209 µM); against Klebsiella pneumoniae, 128 µg/mL (≈ 209 µM); in the assay with Escherichia coli [2], 64 µg/mL (≈ 104 µM); in assay [3], 0.0625 µg/mL (≈ 0.102 µM); with Staphylococcus aureus [4], 128 µg/mL (≈ 209 µM). For the same compound, the MIC with Pseudomonas aeruginosa [5] is more than 128 µg/mL; against Escherichia coli [6], 128 µg/mL (≈ 209 µM); in the assay with Escherichia coli [7], 128 µg/mL (≈ 209 µM); in the assay on Staphylococcus aureus [8] it was 64 µg/mL (≈ 104 µM).
`CC[C@H]1OC(=O)[C@H](C)C(=O)[C@H](C)[C@@H](O[C@@H]2O[C@H](C)C[C@H](N(C)C)[C@H]2O)[C@](C)(OC)C[C@@H](C)C(=O)[C@H](C)[C@H]2N(CCCCn3cnc(-c4cccnc4)c3)C(=O)O[C@]12C` [TELITHROMYCIN]: the MIC against Pseudomonas aeruginosa [1] amounted to 64 µg/mL (≈ 78.8 µM); against Salmonella typhi, 16 µg/mL (≈ 19.7 µM); in the assay with Klebsiella pneumoniae, 16 µg/mL (≈ 19.7 µM); against Escherichia coli [2], 32 µg/mL (≈ 39.4 µM); in assay [3] it was 0.125 µg/mL (≈ 0.154 µM); against Staphylococcus aureus [4] it was 16 µg/mL (≈ 19.7 µM). The MIC came to 64 µg/mL (≈ 78.8 µM) against Pseudomonas aeruginosa [5], 8 µg/mL (≈ 9.85 µM) with Escherichia coli [6], 2 µg/mL (≈ 2.46 µM) in the assay with Escherichia coli [7] and 16 µg/mL (≈ 19.7 µM) with Staphylococcus aureus [8].
Take `CC[C@H]1OC(=O)[C@H](C)[C@@H](O[C@H]2C[C@@](C)(OC)[C@@H](O)[C@H](C)O2)[C@H](C)[C@@H](O[C@@H]2O[C@H](C)C[C@H](N(C)C)[C@H]2O)[C@](C)(OC)C[C@@H](C)C(=O)[C@H](C)[C@@H](O)[C@]1(C)O` [CLARITHROMYCIN]: the MIC is 128 µg/mL (≈ 171 µM) in the assay with Pseudomonas aeruginosa [1]; 64 µg/mL (≈ 85.6 µM) in the assay with Salmonella typhi; 64 µg/mL (≈ 85.6 µM) in the assay on Klebsiella pneumoniae; 64 µg/mL (≈ 85.6 µM) in the assay with Escherichia coli [2]; 64 µg/mL (≈ 85.6 µM) in assay [3]; more than 128 µg/mL in the assay with Staphylococcus aureus [4]. Moreover, the MIC against Pseudomonas aeruginosa [5] worked out at 64 µg/mL (≈ 85.6 µM); against Escherichia coli [6], 32 µg/mL (≈ 42.8 µM); against Escherichia coli [7] it was 64 µg/mL (≈ 85.6 µM); with Staphylococcus aureus [8] it was 32 µg/mL (≈ 42.8 µM).
